Values quoted from earlier work in patent publication US8937168B2, “Method of producing purified rebaudioside A compositions using solvent/antisolvent crystallization” (Cargill, Incorporated, priority 2007, dated 2015).

Conditions: relative to sucrose; background statement

C=C1C[C@@]23CC[C@H]4[C@@](C)(CCC[C@@]4(C)C(=O)O[C@@H]4O[C@H](CO)[C@@H](O)[C@H](O)[C@H]4O)[C@@H]2CC[C@]1(O[C@@H]1O[C@H](CO)[C@@H](O)[C@H](O[C@@H]2O[C@H](CO)[C@@H](O)[C@H](O)[C@H]2O)[C@H]1O[C@@H]1O[C@H](CO)[C@@H](O)[C@H](O)[C@H]1O)C3 [Rebaudioside A, rebaudioside A]
times the sweetness of sucrose: 250-450 times
